Measurements from patent publication US11464770B2, “Anticancer pharmaceutical composition” (NATIONAL CANCER CENTER, priority 2016, dated 2022).
Where two headings read alike, the source gives them in different places.

Assays:
[1] = test system: ovarian cancer cell lines; assay: Cell based assay, cell viability (CellTiter-Glo), ovarian cancer cell lines; conditions: Homo sapiens; OVCAR-3 cells
Experimental: (§1) Commercially available bladder cancer, prostate cancer, lung cancer, breast cancer, blood cancer, pancreatic cancer, colorectal cancer, brain cancer, neuroblastoma, melanoma, liver cancer, cervical carcinoma, ovarian cancer, renal cancer, and papilloma cell lines were each treated with trypsin-EDTA and cultured, followed by being seeded in each well of a 96 well plate. After 24 hours of treatment at constant temperature, the respective cells were treated with the candidate compound so that a final concentration became 0 to 2 μM. The treated cells were additionally cultured for 72 hours, and cell viability was measured by using an ATP detection method (CellTiter-Glo® Luminescent Cell Viability Assay, Promega).

[2] = test system: RT4: human urinary bladder transitional cell papilloma; assay: Cell based assay, cytotoxicity in RT4 papilloma cells (selectivity); conditions: Homo sapiens, RT-4; RT4 cells
Experimental: as §1, with “After 24 hours of treatment at constant temperature, the respective cells were treated with the candidate compound so that a final concentration became 0 to 2 μM.” left out

[3] = test system: breast cancer cell lines (e.g. MDA-MB-231, SK-BR-3, MDA-MB-468, HCC1954); assay: Cell based assay, cell viability (CellTiter-Glo), breast cancer cell lines
Experimental: as §1

[4] = Breast cancer cell line MDA-MB-231-L/DOX, 72 hours, CellTiter-Glo, read-out: IC50, MDA-MB-231-L/DOX
[5] = Homo sapiens, Breast cancer cell line BT-20, 72 hours, CellTiter-Glo, read-out: IC50, BT-20
[6] = Homo sapiens, Breast cancer cell line HCC1395, 72 hours, CellTiter-Glo, read-out: IC50, HCC1395
[7] = Homo sapiens, Breast cancer cell line HCC1954, 72 hours, CellTiter-Glo, read-out: IC50, HCC1954
[8] = Homo sapiens, Breast cancer cell line JIMT-1, 72 hours, CellTiter-Glo, read-out: IC50, JIMT-1
[9] = Homo sapiens, Breast cancer cell line MCF7, 72 hours, CellTiter-Glo, read-out: IC50, MCF7
[10] = Homo sapiens, Breast cancer cell line MDA-MB-231, 72 hours, CellTiter-Glo, read-out: IC50, MDA-MB-231
[11] = Homo sapiens, Breast cancer cell line MDA-MB-468, 72 hours, CellTiter-Glo, read-out: IC50, MDA-MB-468
[12] = Homo sapiens, Breast cancer cell line SK-BR-3, 72 hours, CellTiter-Glo, read-out: IC50, SK-BR-3
[13] = Homo sapiens, BT-20 cells, 72 hours treatment, CellTiter-Glo cell viability, read-out: IC50, Breast cancer cell line BT-20
[14] = Homo sapiens, HCC1395 cells, 72 hours treatment, CellTiter-Glo cell viability, read-out: IC50, Breast cancer cell line HCC1395
[15] = Homo sapiens, HCC1954 cells, 72 hours treatment, CellTiter-Glo cell viability, read-out: IC50, Breast cancer cell line HCC1954
[16] = Homo sapiens, JIMT-1 cells, 72 hours treatment, CellTiter-Glo cell viability, read-out: IC50, Breast cancer cell line JIMT-1
[17] = Homo sapiens, MCF7 cells, 72 hours treatment, CellTiter-Glo cell viability, read-out: IC50, Breast cancer cell line MCF7
[18] = Homo sapiens, MDA-MB-231 cells, 72 hours treatment, CellTiter-Glo cell viability, read-out: IC50, Breast cancer cell line MDA-MB-231
[19] = Homo sapiens, MDA-MB-468 cells, 72 hours treatment, CellTiter-Glo cell viability, read-out: IC50, Breast cancer cell line MDA-MB-468
[20] = Homo sapiens, SK-BR-3 cells, 72 hours treatment, CellTiter-Glo cell viability, read-out: IC50, Breast cancer cell line SK-BR-3
[21] = MDA-MB-231-L/DOX cells, 72 hours treatment, CellTiter-Glo cell viability, read-out: IC50, Breast cancer cell line MDA-MB-231-L/DOX

Structure (SMILES) | IC50 [1] [nM] | IC50 [2] [nM] | IC50 [3, 4] [nM] | IC50 [3, 5] [nM] | IC50 [3, 6] [nM] | IC50 [3, 7] [nM] | IC50 [3, 8] [nM] | IC50 [3, 9] [nM] | IC50 [3, 10] [nM] | IC50 [3, 11] [nM] | IC50 [3, 12] [nM] | IC50 [3, 13] [nM] | IC50 [3, 14] [nM] | IC50 [3, 15] [nM] | IC50 [3, 16] [nM] | IC50 [3, 17] [nM] | IC50 [3, 18] [nM] | IC50 [3, 19] [nM] | IC50 [3, 20] [nM] | IC50 [3, 21] [nM]
CC(=O)c1c([S+]([O-])Cc2cccc(I)c2)[nH]c2c(Br)ccc(Cl)c2c1=O (stereo not drawn) [Compound 48, 3-acetyl-8-bromo-5-chloro-2-((3-iodobenzyl)sulfinyl)quinolin-4(1H)-one] | > 2000 | > 10000 | > 2000 | > 2000 | > 10000 | > 2000 | > 10000 | > 2000 | > 2000 | > 2000 | > 2000 |  |  |  |  |  |  |  |  | 
CSc1c(C(C)=O)c(=O)c2c(Cl)ccc(Br)c2n1S(=O)(=O)c1ccc([N+](=O)[O-])cc1 [Compound 38, 3-acetyl-8-bromo-5-chloro-2-(methylthio)-1-((4-nitrophenyl)sulfonyl)quinolin-4(1H)-one] | > 2000 | > 10000 | > 2000 | > 2000 | > 10000 | > 2000 | > 10000 | > 2000 | > 2000 | > 2000 | > 2000 |  |  |  |  |  |  |  |  | 
CC(=O)c1c([S+]([O-])Cc2ccc(C(F)(F)F)o2)[nH]c2c(F)ccc(F)c2c1=O (stereo not drawn) [Compound 81, 3-acetyl-5,8-difluoro-2-(((5-(trifluoromethyl)furan-2-yl)methyl)sulfinyl)quinolin-4(1H)-one] | > 2000 | > 10000 | > 2000 | > 2000 | > 10000 | > 2000 | > 10000 | > 2000 | > 2000 | > 2000 | > 2000 |  |  |  |  |  |  |  |  | 
CC(=O)c1c([S+]([O-])Cc2cccc(C#N)c2)[nH]c2c(Br)ccc(Cl)c2c1=O (stereo not drawn) [Compound 28, 3-(((3-acetyl-8-bromo-5-chloro-4-oxo-1,4-dihydroquinolin-2-yl)sulfinyl)methyl)benzonitrile] | 690 | > 10000 | > 2000 | > 2000 | > 10000 | > 2000 | > 10000 | > 2000 | 1410 | > 2000 | 660 |  |  |  |  |  |  |  |  | 
O=C(c1ccccc1)c1c([S+]([O-])Cc2ccc(S(F)(F)(F)(F)F)cc2)[nH]c2c(F)ccc(F)c2c1=O (stereo not drawn) [Compound 87, 3-benzoyl-5,8-difluoro-2-((4-(pentafluoro--sulfanyl)benzyl)sulfinyl)quinolin-4(1H)-one] | > 2000 | > 10000 |  |  |  |  |  |  |  |  |  | > 2000 | > 10000 | > 2000 | > 10000 | > 2000 | > 2000 | > 2000 | > 2000 | > 2000
CC(=O)c1c([S+]([O-])Cc2ccc(S(F)(F)(F)(F)F)cc2)[nH]c2c(F)ccc(F)c2c1=O (stereo not drawn) [Compound 80, 3-acetyl-5,8-difluoro-2-((4-(pentafluoro--sulfanyl)benzyl)sulfinyl)quinolin-4(1H)-one] | > 2000 | > 10000 | > 2000 | > 2000 | > 10000 | > 2000 | > 10000 | > 2000 | > 2000 | > 2000 | > 2000 |  |  |  |  |  |  |  |  | 
CC(=O)c1c([S+]([O-])c2ccc(Br)cc2)[nH]c2c(Br)ccc(Cl)c2c1=O (stereo not drawn) [Compound 17, 3-acetyl-8-bromo-2-((4-bromophenyl)sulfinyl)-5-chloroquinolin-4(1H)-one] | > 2000 | > 10000 | > 2000 | > 2000 | > 10000 | > 2000 | > 10000 | > 2000 | > 2000 | > 2000 | > 2000 |  |  |  |  |  |  |  |  | 
CC(=O)c1c([S+]([O-])Cc2ccccc2)nc2c(Br)ccc(Cl)c2c1O (stereo not drawn) [Compound 53, 1-(2-(benzylsulfinyl)-8-bromo-5-chloro-4-hydroxyquinolin-3-yl)ethan-1-one] | > 2000 | > 10000 | > 2000 | > 2000 | > 10000 | > 2000 | > 10000 | > 2000 | > 2000 | > 2000 | > 2000 |  |  |  |  |  |  |  |  | 
CC(=O)c1c([S+]([O-])Cc2cc(C)on2)[nH]c2c(F)ccc(F)c2c1=O (stereo not drawn) [Compound 82, 3-acetyl-5,8-difluoro-2-(((5-methylisoxazol-3-yl)methyl)sulfinyl)quinolin-4(1H)-one] | > 2000 | > 10000 |  |  |  |  |  |  |  |  |  | > 2000 | > 10000 | > 2000 | > 10000 | > 2000 | > 2000 | > 2000 | 1770 | > 2000
